# Measurements from US20250332263A1, “SURFACTANT STABILIZERS” (NOVARTIS AG, priority 2021, published 2025).
# Entries after “also recorded” stand apart in the source; their conditions may differ.
# Columns and labels:
# Protein 5 = test: Protein stabilization, purity by SEC-UPLC; type: physicochemical; settings: Protein 5 formulation, 0.2% PLX188 or 0.04% PS20, PS80 or VEDS, one month at 30° C.
# Procedure: A liquid formulation containing Protein 5 was prepared as herein described. […] (FIG. 8). A pull point was taken after this time and used for the following analysis.
# [1] = Surfactant stability under oxidative stress (H2O2); type: physicochemical; settings: 0.25 M and 2.5 M H2O2, 6 days at 40° C., vs non-treated control
# Procedure: (§1) Polysorbate 20/80 suffers from chemical and enzymatic degradation mechanisms as described earlier. In order to test the amphiphilic surfactants of the disclosure for stability against oxidative and hydrolytic stress, the following forced degradation assay was performed using hydrogen peroxide and various buffers to mimic those stress conditions. The aim was to mimic chemical degradation pathways that surfactants would encounter during shelf life.
# (§2) H2O2(0.25 M and 2.5 M) was added to formulations containing surfactants and subsequently incubated for 6 days at 40° C. in order to mimic oxidative stress. In addition, surfactants were added to different buffer types (e.g., histidine, citrate, phosphate and succinate buffer) and exposed to accelerated degradation stress such as temperature stress (50° C. for 1 month) at different pH (5.5 and 6.5) in order to mimic chemical degradation pathways (e.g., oxidation, hydrolysis). Control samples were frozen to avoid degradation (FZ). Chromatography methods were used to determine the surfactant content of formulations after accelerated conditions by comparing it to the amount of surfactant spiked into the buffer at the beginning of the experiment.
# [2] = Quiescence stability study, oxidative and hydrolytic degradation of surfactant in Protein 2 formulation; settings: six months at 25° C.; for surfactant content left: HPLC main peak
# Procedure: A pull point was taken every month and a half (TO, T1.5m, T3m, T4.5m and T6m) and frozen for storage.
# The surfactant content was measured for all pull points of a specific surfactant in a single series by HPLC and the analysis was performed by a standard baseline correction followed by integration of the main peak, representing the integer (not degraded) surfactant.
# [3] = Surfactant stability under pH and temperature stress in different buffers; type: physicochemical; settings: pH 5.5 and 6.5, 50° C. for 1 month, vs frozen control (FZ)
# Procedure: as §1, §2
# [4] = tested on: host cell proteins (HCPs) of Protein 4; test: Enzymatic degradation of surfactant in protein 4 formulation; type: physicochemical; settings: 0.02% PS80 or 0.04% other surfactants, one month at 5° C. or 40° C., HPLC
# Excerpt: Therefore, a formulation containing protein 4 also contains the enzymes responsible for polysorbate degradations and it is a suitable proxy for testing the propensity of enzymatic degradation during shelf life in real-world conditions.
# Platelets = test: Inhibition of platelet aggregation, Whole Blood Aggregometry (WBA); type: cell-based, human; settings: 0.04% or 0.01% surfactant, 10 minutes at 37° C.; agonists AA, TRAP6, collagen, ADP
# Procedure: Human whole blood of 6 healthy volunteers was incubated with 0.04% or 0.01% surfactants for 10 minutes at 37° C. Saline solution was used as negative control. Platelets were activated with four independent agonists: arachidonic acid (AA), thrombin receptor activator peptide (TRAP6), collagen and ADP. Aggregation was measured through Whole Blood Aggregometry (WBA).
# Whole Blood Aggregometry (WBA) consists of immerging electrodes into whole blood which measure the impedance between them. The addition of a platelet agonist activates the aggregation, resulting in an increase of impedance over time. This increase can be compared between a negative control and a testing sample to derive the degree of platelet inhibition.
# dendritic cells = test: Dendritic cell activation; type: cell-based, human; settings: 48 h surfactant incubation, compared to LPS activated DC and no-treatment control
# Procedure: Dendritic cell activation: Human whole blood was used to extract monocytes using MACS (magnetic activated cell sorting) according to manufacturer's instructions (Miltenyi Biotec Order no. 130-114-980). Cells were incubated for 6 days in respective differentiation media (Miltenyi DC differentiation medium order no. 130-094-812) resulting in dendritic cells. Cells were incubated in medium with surfactants in question for 48 h and subsequently stained for cell activation using fluorescently labeled antibodies (Mouse Anti-Human CD14 PerCP-Cy5.5 order no. 562692 from BD to check monocyte negative; Mouse Anti-Human CD11c BV605 from BD to check dendritic cell differentiation and Mouse Anti-Human CD80 FITC order no. 557226 from BD to check cell activation).
# Basophile cells = test: Basophile activation assay (B-cell activation); type: cell-based, human; settings: compared to polysorbate and B-cell activating positive control
# Procedure: Basophile activation assay: Human whole blood was used to purify B-cells using an in vitro B-cell activation kit (Cellonic, Basotest, Cat #10-0500). Basophile cells were incubated in 100 μL 1×wash buffer containing the final surfactant concentration as the correct dilutions were prepared beforehand. Cell labeling, lysis and fixation was performed according to manufacturer instructions and subsequently analyzed using a BD FORTESSA flow cytometer. Leucocytes are gated via forward and sideward scatter. The Basophile subpopulation was gated on CD123 and IgE staining. Finally, activated Basophile cells were identified via CD203c and CD63 gating. All fluorescently labeled antibodies were provided in the kit stated above.
# protein 1 = test: Equilibrium surface tension, pendant-drop tensiometer (protein displacement at air/water interface); type: physicochemical; settings: surfactant in histidine buffer, absence or presence of protein 1, compared with protein 1 without surfactant; 60 min
# Procedure: The aim of this experiment was to investigate the type of stabilization mechanism which the surfactants employ in protein-containing formulations. A Pendant-Drop Tensiometer was utilized to determine protein (API) displacement by surfactants at the air/water interface. Surfactant interface saturation mitigates the risk of interfacial stress for proteins and associated negative effects potentially impacting protein quality attributes.
# The protein corresponding buffer was prepared and sterile filtered using a 0.22 μm filter unit. The surfactant in question was added into the buffer using a 5% stock solution as described earlier.
# The buffer surfactant mix was aliquoted in 2 Nalgene bottles. To one of the two bottles was added the respective API in question to reach a final concentration of 1 mg/mL for protein 1 and 10 mg/mL for proteins 2 and 3.
# Equilibrium surface tension was measured using the PAT-1M tensiometer (Sinterface). The system was rinsed 12 times with the sample to be measured. A hanging drop of constant volume (20 μL) was measured every second for 60 min. Drug substance samples with and without surfactants were measured at the same day to avoid operator, sample and day to day variations.
# [5] = tested on: protein 1 (disordered protein); test: Orbital shaking forced degradation, particle count by micro-flow-imaging, Protein 1; type: physicochemical; settings: orbital shaking 250 rpm, ambient temperature, 0 h, 7 h and 24 h
# Procedure: The API corresponding buffer was prepared with 20 mM Histidine, 220 mM Succrose pH 5.8 in water.
# The aim of this experiment was to investigate the effect of amphiphilic surfactants to protect proteins from interfacial stress, such as that which is present during manufacturing, transport and application. As a proxy for this stress the forced degradation assay (orbital shaking), applying mechanical stress, was used in order to determine whether chosen surfactants stabilize three different protein API's (disordered protein, Fab, mAb) against mechanical stress (mitigating particle creation (protein aggregates)).
# 1.2 mL of sample was aliquoted in each 6R vial (2x). Vials of same sample were pooled after the study in order to generate enough volume for all analytical testing.
# Mechanical stress was generated through orbital shaking at 250 rpm at ambient temperature for 0 h, 7 h, 24 h and 48 h using an orbital shaker. Samples were subsequently analyzed via micro-flow-imaging (MFI). Particle count >2 μm/mL was visualized by MF.
substance,measurement,setting,value
Polysorbate 20 [PS20],"protein purity, relative comparison between surfactants",Protein 5,lower purity
same,"sum of impurities, relative comparison between surfactants",Protein 5,higher impurities
Polysorbate 80 [PS80],surfactant content after oxidative stress (H2O2),[1],stable; also recorded: minor loss
same,surfactant content left,[2],~5%
same,surfactant content after pH and temperature stress,[3]; citrate buffer,stable
same,surfactant content after pH and temperature stress,[3]; histidine buffer,decreased content
same,surfactant content after pH and temperature stress,[3]; phosphate buffer,decreased content
same,surfactant content after pH and temperature stress,[3]; succinate buffer,decreased content
same,surfactant content (enzymatic degradation by HCPs),[4],Degradation is observed both at 5 °C and 40 °C
Vitamin E dimethyl glutarate [VEDG3.3],inhibition of platelet aggregation,Platelets,comparable platelet inhibition values as PS80
same,"mean fluorescence intensity (MFI) fold change, dendritic cell (DC) activation",dendritic cells; listed as VEDG 3.3,perform better than TPGS1000; also recorded: no DC activation
Vitamin E dimethyl glutarate [VEDG2.2],number of activated B cells (%) upon surfactant treatment,Basophile cells,lower level of B-cell activation than TPGS1000
same,equilibrium surface tension / surface activity,protein 1,even higher surface activity resulting in significant drop of surface tension
same,"mean fluorescence intensity (MFI) fold change, dendritic cell (DC) activation",dendritic cells; listed as VEDG 2.2,perform better than TPGS1000; also recorded: no DC activation
same,particle count >2 μm/mL,[5],perform better than TPGS-1000
same,surfactant content left,[2],88-90%
same,susceptibility to chemical degradation (surfactant content over time),[2]; pull points every 1.5 months,minimal susceptibility to chemical degradation
same,surfactant content (enzymatic degradation by HCPs),[4],not affected by enzymatic degradation
